This is an account of results in ChEMBL document CHEMBL5236633, “Multi-therapies Based on PARP Inhibition: Potential Therapeutic Approaches for Cancer Treatment” (J Med Chem, 2022).

What is called IC50 is the point on the concentration scale where inhibition reaches its midpoint. The DC50 is the concentration giving 50% degradation.

Assay [1] concerns the target T1, Poly [ADP-ribose] polymerase 1 (Homo sapiens, UniProt P09874). The assay can be described thus: Inhibition of PARP1 (unknown origin).
Assay [2] concerns A549. The assay can be described thus: Antiproliferative activity against human A549 cells assessed as cell growth inhibition measured after 24 hrs by MTT assay. It counts as functional, cell-based. The conditions noted are these: A549, 24 h. In general terms: Tetrazolium assays rely on reduction of a dye to a coloured formazan, in cell work by metabolically active cells.
Assay [3] has as its system MDA-MB-231. The assay can be described thus: Antiproliferative activity against human MDA-MB-231 cells assessed as cell growth inhibition incubated for 24 hrs by CCK-8 assay. The conditions noted are these: MDA-MB-231, 24 h. It counts as functional, cell-based.
The test system of assay [4] is MDA-MB-231. The assay can be described thus: Antiproliferative activity against human MDA-MB-231 cells assessed as cell growth inhibition incubated for 24 hrs in presence of nutlin-3 by CCK-8 assay. The conditions noted are these: MDA-MB-231, 24 h.
The target in assay [5] is T1, Poly [ADP-ribose] polymerase 1. The assay can be described thus: Inhibition of PARP1 (unknown origin) incubated for 30 mins by fluorescence based analysis.
The test system of the next assay is MDA-MB-436. The assay can be described thus: Antiproliferative activity against human BRCA1 -/- MDA-MB-436 cells assessed as cell growth inhibition. The format is functional, cell-based.
Assay [6] concerns the target Epidermal growth factor receptor (Homo sapiens, UniProt P00533). The assay can be described thus: Inhibition of EGFR (unknown origin).
In assay [7] the test system is MDA-MB-231. The assay can be described thus: Antiproliferative activity against human MDA-MB-231 cells assessed as cell growth inhibition at 10 uM incubated for 24 hrs by CCK-8 assay relative to control. The format is functional. Also noted: scale not given: the % may be the effect or the level left.
Assay [8] concerns A549. The assay can be described thus: Antiproliferative activity against human A549 cells assessed as cell growth inhibition. It counts as functional, cell-based.
For assay [9], the target named is T2, Protein mono-ADP-ribosyltransferase PARP3 (Homo sapiens, UniProt Q9Y6F1).
T2 sequence (Q9Y6F1 whole entry): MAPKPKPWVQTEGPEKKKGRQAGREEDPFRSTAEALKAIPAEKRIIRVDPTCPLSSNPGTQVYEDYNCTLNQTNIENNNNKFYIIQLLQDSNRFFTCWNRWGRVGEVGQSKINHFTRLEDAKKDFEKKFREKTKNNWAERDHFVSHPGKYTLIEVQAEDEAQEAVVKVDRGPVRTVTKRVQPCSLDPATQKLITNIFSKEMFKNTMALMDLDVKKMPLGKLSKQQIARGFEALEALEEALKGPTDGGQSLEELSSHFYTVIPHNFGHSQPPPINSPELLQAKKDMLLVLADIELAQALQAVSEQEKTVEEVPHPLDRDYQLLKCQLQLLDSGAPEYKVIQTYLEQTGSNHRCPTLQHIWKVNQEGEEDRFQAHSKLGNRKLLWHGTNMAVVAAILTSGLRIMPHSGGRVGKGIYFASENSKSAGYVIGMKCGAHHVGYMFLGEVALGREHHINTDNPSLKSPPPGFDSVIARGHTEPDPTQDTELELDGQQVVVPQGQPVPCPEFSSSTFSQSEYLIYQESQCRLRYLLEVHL
The assay can be described thus: Inhibition of PARP3 (unknown origin).

Assay [10] has as its target T3, Protein mono-ADP-ribosyltransferase PARP16 (Homo sapiens, UniProt Q8N5Y8).
T3 sequence (Q8N5Y8 whole entry): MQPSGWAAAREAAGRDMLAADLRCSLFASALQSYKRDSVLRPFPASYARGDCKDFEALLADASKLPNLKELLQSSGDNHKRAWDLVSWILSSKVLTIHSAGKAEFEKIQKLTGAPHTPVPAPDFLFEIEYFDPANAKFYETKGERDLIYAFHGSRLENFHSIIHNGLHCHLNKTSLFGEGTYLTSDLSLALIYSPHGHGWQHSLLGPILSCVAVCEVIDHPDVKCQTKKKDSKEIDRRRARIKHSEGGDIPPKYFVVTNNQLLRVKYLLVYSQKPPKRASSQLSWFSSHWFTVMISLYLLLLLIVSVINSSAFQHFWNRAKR
The assay can be described thus: Inhibition of PARP16 (unknown origin).

For assay [11], the target named is Protein cereblon/Poly [ADP-ribose] polymerase 1 (Homo sapiens, UniProt P09874+Q96SW2). The assay can be described thus: Protac activity at CRBN/PARP1 in human HeLa cells assessed as induction of PARP-1 degradation measured after 24 hrs by immunoblotting analysis. It counts as cell-based. (Immunoblotting shows a protein as a band on a membrane.)
Chain of Protein cereblon/Poly [ADP-ribose] polymerase 1 (P09874 whole entry): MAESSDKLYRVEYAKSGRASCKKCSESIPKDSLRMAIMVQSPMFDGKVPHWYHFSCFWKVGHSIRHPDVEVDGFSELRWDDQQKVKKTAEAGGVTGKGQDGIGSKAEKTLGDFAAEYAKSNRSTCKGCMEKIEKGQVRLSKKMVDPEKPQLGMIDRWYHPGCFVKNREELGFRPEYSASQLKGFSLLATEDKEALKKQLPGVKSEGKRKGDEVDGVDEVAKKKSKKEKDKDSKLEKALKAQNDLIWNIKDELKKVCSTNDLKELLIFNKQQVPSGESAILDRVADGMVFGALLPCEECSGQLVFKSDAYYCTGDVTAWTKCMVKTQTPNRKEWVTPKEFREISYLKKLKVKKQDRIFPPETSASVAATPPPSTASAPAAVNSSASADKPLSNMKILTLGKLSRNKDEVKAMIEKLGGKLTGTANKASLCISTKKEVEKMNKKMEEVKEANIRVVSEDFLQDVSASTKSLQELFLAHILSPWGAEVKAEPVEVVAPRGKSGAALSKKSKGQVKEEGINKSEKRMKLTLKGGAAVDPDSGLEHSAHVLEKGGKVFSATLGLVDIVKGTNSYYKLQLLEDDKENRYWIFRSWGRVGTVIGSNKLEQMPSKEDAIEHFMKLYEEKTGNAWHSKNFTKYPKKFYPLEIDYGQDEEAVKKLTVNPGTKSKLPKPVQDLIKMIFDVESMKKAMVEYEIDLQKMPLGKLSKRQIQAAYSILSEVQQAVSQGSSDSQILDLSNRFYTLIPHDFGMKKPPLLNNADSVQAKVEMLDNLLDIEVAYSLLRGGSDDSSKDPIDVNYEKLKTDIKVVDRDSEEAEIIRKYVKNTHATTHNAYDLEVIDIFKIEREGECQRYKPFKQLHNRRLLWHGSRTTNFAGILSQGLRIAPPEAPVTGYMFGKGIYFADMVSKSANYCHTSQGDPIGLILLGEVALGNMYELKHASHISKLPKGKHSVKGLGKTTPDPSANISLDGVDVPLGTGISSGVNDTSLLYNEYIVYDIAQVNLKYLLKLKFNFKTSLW
Chain of Protein cereblon/Poly [ADP-ribose] polymerase 1 (Q96SW2 whole entry): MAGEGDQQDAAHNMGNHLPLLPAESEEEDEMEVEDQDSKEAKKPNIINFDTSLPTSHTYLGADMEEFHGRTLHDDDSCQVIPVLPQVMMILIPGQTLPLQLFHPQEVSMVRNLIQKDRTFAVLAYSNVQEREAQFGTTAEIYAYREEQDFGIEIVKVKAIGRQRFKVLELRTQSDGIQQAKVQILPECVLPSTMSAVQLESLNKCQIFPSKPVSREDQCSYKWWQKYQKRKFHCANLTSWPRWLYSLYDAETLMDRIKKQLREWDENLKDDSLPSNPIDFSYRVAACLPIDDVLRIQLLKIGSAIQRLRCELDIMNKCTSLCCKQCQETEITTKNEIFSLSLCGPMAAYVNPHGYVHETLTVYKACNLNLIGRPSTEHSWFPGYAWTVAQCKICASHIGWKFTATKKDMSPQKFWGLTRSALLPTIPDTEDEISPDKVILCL

T1 sequence (P09874 whole entry): as the sequence (P09874 whole entry) above
Chain of Epidermal growth factor receptor (P00533 whole entry): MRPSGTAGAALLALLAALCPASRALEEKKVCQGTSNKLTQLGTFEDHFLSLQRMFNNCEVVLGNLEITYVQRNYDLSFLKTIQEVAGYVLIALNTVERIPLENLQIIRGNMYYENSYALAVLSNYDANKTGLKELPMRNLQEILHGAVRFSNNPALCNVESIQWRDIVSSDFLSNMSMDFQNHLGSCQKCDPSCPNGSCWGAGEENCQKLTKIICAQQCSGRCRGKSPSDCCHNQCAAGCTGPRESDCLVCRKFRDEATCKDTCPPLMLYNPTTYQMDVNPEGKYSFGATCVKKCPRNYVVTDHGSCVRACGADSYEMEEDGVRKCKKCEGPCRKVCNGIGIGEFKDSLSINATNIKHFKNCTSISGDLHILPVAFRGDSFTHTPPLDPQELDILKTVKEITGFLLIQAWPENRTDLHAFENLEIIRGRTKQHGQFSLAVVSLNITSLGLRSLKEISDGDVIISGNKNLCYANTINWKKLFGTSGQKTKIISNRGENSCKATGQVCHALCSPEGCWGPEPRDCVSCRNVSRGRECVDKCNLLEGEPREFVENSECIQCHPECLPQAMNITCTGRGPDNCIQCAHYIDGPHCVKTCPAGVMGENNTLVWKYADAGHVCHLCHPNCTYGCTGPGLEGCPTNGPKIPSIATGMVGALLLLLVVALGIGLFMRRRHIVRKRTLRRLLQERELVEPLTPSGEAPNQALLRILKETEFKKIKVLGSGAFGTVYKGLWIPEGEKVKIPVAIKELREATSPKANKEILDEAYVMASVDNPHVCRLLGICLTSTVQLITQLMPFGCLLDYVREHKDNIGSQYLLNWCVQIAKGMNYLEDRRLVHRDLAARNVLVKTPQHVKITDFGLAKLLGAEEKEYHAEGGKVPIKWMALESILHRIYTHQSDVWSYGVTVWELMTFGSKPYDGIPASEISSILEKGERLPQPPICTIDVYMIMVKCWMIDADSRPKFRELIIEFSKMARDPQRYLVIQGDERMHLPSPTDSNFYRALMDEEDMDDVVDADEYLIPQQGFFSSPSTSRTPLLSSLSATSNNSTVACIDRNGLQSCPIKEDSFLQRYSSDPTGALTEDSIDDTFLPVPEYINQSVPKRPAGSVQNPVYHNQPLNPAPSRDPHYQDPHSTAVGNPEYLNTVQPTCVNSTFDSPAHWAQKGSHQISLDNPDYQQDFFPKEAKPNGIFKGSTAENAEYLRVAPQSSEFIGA

Consider `O=C1CCc2cc(-c3ccccc3F)ccc2C2(CCCCC2)N1`, for which the 50% inhibitory concentration (IC50) was 19.9 nM in [1] and 2010 nM in the assay on A549 [2].

In turn, `O=c1cc(-c2ccc(O)c(-c3c(O)cc(O)c4c(=O)cc(-c5ccc(O)cc5)oc34)c2)oc2cc(O)cc(O)c12` [AMENTOFLAVONE] showed an IC50 in assay [1] of 198 nM.

With `NC(=O)c1cccc2cn(-c3ccc([C@@H]4CCCNC4)cc3)nc12` [NIRAPARIB], the IC50 with MDA-MB-231 [3] is 33200 nM; with MDA-MB-231 [4], 60900 nM.

As to `O=C(c1ccc(Cc2n[nH]c(=O)c3cccnc23)cc1)N1CCCC1`, the IC50 in [5] was found to be 36 nM.

Regarding `CC(c1nc2cccc(C(N)=O)c2[nH]1)N1CC(=O)N(c2cccc(C(F)(F)F)c2)C1=S` (centres undefined), the IC50 with MDA-MB-436 came out at 1000 nM; in assay [5], 25 nM.

As for `Cc1nnc2n1N=C(c1ccccc1OCCNCCCNCCOc1ccccc1C1=Nn3c(C)nnc3SC1)CS2`, the IC50 in [1] stood at 1.37 nM; in assay [6], 64.7 nM.

On to `COc1ccc(C2=N[C@H](c3ccc(Cl)cc3)[C@H](c3ccc(Cl)cc3)N2C(=O)N2CCN(CC(=O)NCCOCCOCCOCCOCCn3cc(-c4ccc(-n5cc6cccc(C(N)=O)c6n5)cc4)nn3)C(=O)C2)c(OC(C)C)c1`, for which the IC50 with MDA-MB-231 [3] turned out to be 8450 nM. Further, in the assay on MDA-MB-231 [7], the Activity is 70%.

Consider `O=C1CCN(Cc2cn(-c3ccccc3F)nn2)C2(CCCCC2)c2ccccc21`, for which the half-inhibitory concentration (IC50) in the assay on A549 [8] turned out to be 1890 nM.

Turning to `COc1ccc(C2=NC(c3ccc(Cl)cc3)C(c3ccc(Cl)cc3)N2C(=O)N2CCNC(=O)C2)c(OC(C)C)c1` (centres undefined), the half-maximal inhibitory concentration (IC50) in the assay with MDA-MB-231 [3] is 28500 nM.

As to `O=C1NCC(c2ccccn2)[C@@H](O)c2cc(Cl)c(Cl)cc21` (some centres undefined), the IC50 in [9] was determined as 74100 nM; in assay [10], 362 nM.

Turning to `O=C1CN(Cc2cn(-c3ccccc3F)nn2)C2(CCCCC2)c2ccccc21`, the IC50 in assay [1] worked out at 14.4 nM; in the assay on A549 [8], 230 nM.

For the compound `CN(CCOCCOCCOCCOCCOCCOCCNc1cccc2c1C(=O)N(C1CCC(=O)NC1=O)C2=O)Cc1ccc(-c2[nH]c3cc(F)cc4c3c2CCNC4=O)cc1` (centres undefined), the DC50 in [11] came out at 36 nM.
